From paper PMC4459817, “Vasculotide reduces endothelial permeability and tumor cell extravasation in the absence of binding to or agonistic activation of Tie2” (EMBO Molecular Medicine, 2015)
Entries after “also recorded” stand apart in the source; their conditions may differ.

Assays:
[1] = test system: LM2-4luc lung metastases in SCID mice; test: experimental LM2-4luc lung metastasis model (IV); type: in vivo, human LM2-4luc cells in CB-17 SCID mice; conditions: for lung metastases by in vivo bioluminescent imaging: 24DPI, SU 60 mg/kg/day pretreatment, one-way ANOVA, Fig2B–D
Text: (C and G) Photographs of typical metastases in the lungs and caudal lymphatics, respectively. […] Geometric means ± 95%CI are depicted in (D and H); P values were derived by one-way ANOVA (D) and Kruskal–Wallis test (H). […] TEXT PRINTED IN THE PICTURE: (A) Vasculotide (VT): Hazard ratio = 0.13 (95% CI, 0.03 to 0.63) | (A) SU+VT: Hazard ratio = 0.19 (95% CI, 0.04 to 0.81) DOUBTS OF THE COPYIST ABOUT THIS PICTURE: Vasculotide (VT), Hazard ratio: small print; 0.13 could be 0.15 or 0.18, and the CI limits 0.03 and 0.63 are uncertain in the digits 3/5/6/8 / SU+VT, Hazard ratio: small print; 0.19 could be 0.18 or 0.16, and the CI limits 0.04 and 0.81 are uncertain in the digits / Panel A: each hazard ratio is printed under a pair of legend entries (Vehicle / Vasculotide (VT), and Sunitinib (SU) / SU+VT). Assigning it to the VT-treated arm of each pair is my assumption.
In vivo experiments were performed in strict accordance with protocols approved by the Sunnybrook Research Institute Animal Care Committee, accredited by the Canadian Council of Animal Care. All surgical, imaging, and euthanasia procedures were performed under inhaled isoflurane anesthesia. Experimental metastasis models involved injections of 10^6 tumor cells, suspended in 200 μl serum-free DMEM, into the mouse tail vein. LM2-4^luc implantations were performed on 6 to 8-week-old female CB-17 SCID mice (Charles River Canada). HT29^luc implantations were performed on 19- to 20-week-old male and 11- to 12-week-old female YFP-SCID mice (bred in-house). SN12^luc implantations were performed on 9-week-old male YFP-SCID mice. Spontaneous metastasis models involved orthotopic implantations of 2 × 10^6 LM2-4^luc cells/50 μl serum-free DMEM in the right inguinal mammary fat pads of 6-week-old female CB-17 SCID mice.
Sunitinib malate (SU), from Pfizer or LC Laboratories, and its vehicle were formulated as described before (Ebos et al, [2009]). SU was administered by oral gavage (PO), once daily, at a dose of 60 mg/kg mouse weight. Vasculotide (VT): VT synthesized at the Sunnybrook Research Institute (Toronto, ON, Canada) was used in experiments described in Fig2(A–D) and Supplementary Fig S5(A and B). VT synthesized by American Peptide (Sunnyvale, CA, USA) was used in experiments described in Fig5. VT synthesized by Bachem UK Ltd was used in experiments described in Figs1, 2(E–H), 3, 4, 6–9, Supplementary Figs S2, and S5(C and D). Lyophilized product was reconstituted in PBS to 500 μg/500 μl stock aliquots and stored at −80°C. As needed, stock aliquots were diluted with PBS to a 250 ng/50 μl working concentration and stored in 0.4–1 ml aliquots at −80°C. VT (at a standard dose of 250 ng/mouse) or its vehicle (PBS) was administered to mice by intraperitoneal (IP) injections every other day.
5. Bioluminescence imaging (BI) of tumor burden
For in vivo BI: Mice were injected intraperitoneally with 150mg/kg luciferin (Promega) 10 minutes prior to and anesthetized with isofluorane just before luminescent pseudocolor imaging (uniform settings: CCD camera locked at -105 °C, exposure=60s, f/1, subject size=1.5cm, bin=8, FOV=23.2cm, full image correction) using the IVIS 200 Imaging System (Caliper/PerkinElmer). Using the Living Image software (v2.50.1, Xenogen), weekly images were analyzed under uniform color range on grayscale photographic overlay. Total fluxes (photons/sec) were quantified within consistent regions of interest and statistically compared ideally at a timepoint before any deaths have occurred. […]

[2] = test system: tumor cells across dermal HMVECs; test: modified Boyden chamber, TC-CM stimulated tumor cell migration; type: cell-based, human; conditions: Fig4B; for TC migration in presence of TC-CM: 20 ng/mL VT or 400 ng/mL Ang1 vs PBS, paired t-test, n = 6 experimental replicates; for inhibition of TC migration, on average: 20 ng/mL VT
Procedure: To investigate this possibility in vitro, we performed modified Boyden chamber assays where we stimulated ECs with tumor cell-conditioned media (TC-CM)—that is, supplement-reduced EC growth media containing all the cytokines naturally secreted by LM2-4^luc, SN12^luc, or HT29^luc cells over 30 hours of hypoxic incubation (1% O2).
Meta-analyses of treatment effects on dextran permeability (A) and tumor cell migration (B), where each datapoint represents the mean of an independent experiment, averaged over 2–3 biological replicates (inserts) per treatment group and normalized internally within that same experiment.
Endothelial cells (ECs) were grown on cell culture inserts with uncoated 8-μm-pore PET filter membranes to 100% confluency. See Supplementary Fig S4 for detailed timelines. […] Permeability assays: A total of 100 μg of FITC-dextran (Sigma FD-20S) was dispensed into the upper chamber media. After 30 min of thrombin stimulation or 4–6 h of TC-CM stimulation, FITC fluorescence (ex/em = 490/520 nm) was measured from a 50 μl sample of the lower chamber media. Tumor cell extravasation assays: A total of 4 × 10^4 TCs freshly labeled with CellTracker™ Red CMPTX (Invitrogen C34552: ex/em = 577/602 nm) were seeded into each insert. Where EDTA was used in the permeability assay, the assay media was changed to remove EDTA before introducing TCs. After a 15- to 30-h incubation, the ECs and non-migrated TCs above insert membranes were removed with a cotton swab, whereas migrated/‘extravasated’ TCs and ECs below insert membranes were fixed in 4% PFA. Fixed membranes were mounted onto slides with DAPI stain. CMPTX fluorescence from migrated TCs was then quantified from 10× microscopy images using a MATLAB (MathWorks, Natick, MA, USA) script; five images (technical replicates) were analyzed per insert.
TCs were cultured in DMEM High Glucose basal media supplemented with 5% FBS and grown humidified incubators at 37 °C, 21%O2 and 5%CO2 unless otherwise specified. LM2-4 luc is a highly metastatically aggressive variant of the human breast carcinoma MDA-MB-231 cell line (derived through serial in vivo selection of lung metastases from orthotopic implantations in immunodeficient mice) that has been transfected with a firefly luciferase vector (Man et al, 2007; Ebos et al, 2009). HT29luc is a human colon carcinoma cell line also transfected with the luciferase gene (Hackl et al, 2013). SN12luc refers to a luciferase-tagged and highly metastatic clone of a human renal cell carcinoma cell line, SN12-

Molecule	lung metastases by in vivo bioluminescent imaging ([1]; VT 250 ng/2d, listed as SU)	lung metastases by in vivo bioluminescent imaging ([1]; VT 250 ng/2d, listed as VT)	confirmatory repeats: VT trends on lung metastases and survival ([1]; Supplementary Fig S5)	survival ([1]; VT 250 ng/2d, with or without SU 60 mg/kg/day pretreatment, n = 5–6, Fig2A, listed as VT)	extension of median survival ([1]; VT 250 ng/2d IP monotherapy, n = 5–6, Fig2A) [%]	TC migration in presence of TC-CM [2]	inhibition of TC migration, on average ([2]; LM2-4luc-conditioned media) [%]	inhibition of TC migration, on average ([2]; SN12luc-conditioned media) [%]
CCN(CC)CCNC(=O)c1c(C)[nH]c(/C=C2\C(=O)Nc3ccc(F)cc32)c1C [sunitinib, reference compound]	promoted lung metastases; also recorded: preferentially accelerated experimental lung metastasis, but not lymphatic metastasis							
CHHHRHSF [Vasculotide, 4-armed maleimide-functionalized polyethylene glycol (PEG) backbone to link together four cysteine-capped T7 peptides, that is, CHHHRHSF]		trend of reduced lung metastases; also recorded: effectively suppressing SU-induced promotion of lung metastases, as seen by IVBI (P < 0.05	The same trends were reproduced	significant survival benefit (P = 0.01); also recorded: prolonged median survival	~20	P = 0.10 for VT	−43	−23
recombinant human Ang1 (rhAng1) (ligand, UniProt Q15389 16-498, looked up, angiopoietin-1, human, recombinant; also called angiopoietin-1; source: bought: R&D Systems (named for the Boyden chamber experiments)) HIGCSNQRRSPENSGRRYNRIQHGQCAYTFILPEHDGNCRESTTDQYNTNALQRDAPHVEPDFSSQKLQHLEHVMENYTQWLQKLENYIVENMKSEMAQIQQNAVQNHTATMLEIGTSLLSQTAEQTRKLTDVETQVLNQTSRLEIQLLENSLSTYKLEKQLLQQTNEILKIHEKNSLLEHKILEMEGKHKEELDTLKEEKENLQGLVTRQTYIIQELEKQLNRATTNNSVLQKQQLELMDTVHNLVNLCTKEGVLLKGGKREEEKPFRDCADVYQAGFNKSGIYTIYINNMPEPKKVFCNMDVNGGGWTVIQHREDGSLDFQRGWKEYKMGFGNPSGEYWLGNEFIFAITSQRQYMLRIELMDWEGNRAYSQYDRFHIGNEKQNYRLYLKGHTGTAGKQSSLILHGADFSTKDADNDNCMCKCALMLTGGWWFDACGPSNLNGMFYTAGQNHGKLNGIKWHYFKGPSYSLRSTTMMIRPLDF						P < 0.05 for Ang1		
